Experiment in all cases: Z'-LYTE kinase panel
Type in all cases: biochemical

One test has as its target T1, AKT2 (PKB beta) (Homo sapiens, UniProt P31751).
T1 construct: purchased ThermoFisher (SelectScreen, Z'-LYTE)
A digest of the protocol:
(§1)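 A panel of 225 kinases is tested by Z′-LYTE under the standard protocol, with compounds at 10 µM and results given as percentage inhibition.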

The next test concerns the target T2, MAPK14 (p38 alpha) (Homo sapiens, UniProt Q16539).
T2 construct: purchased ThermoFisher (SelectScreen, Z'-LYTE)
The following applies: 10 µM compound; ATP 100. A digest of the protocol:
as §1

Another test has as its target T3, FLT3 (Homo sapiens, UniProt P36888).
T3 construct: purchased ThermoFisher (SelectScreen, Z'-LYTE)
T3 sequence (P36888 27-993): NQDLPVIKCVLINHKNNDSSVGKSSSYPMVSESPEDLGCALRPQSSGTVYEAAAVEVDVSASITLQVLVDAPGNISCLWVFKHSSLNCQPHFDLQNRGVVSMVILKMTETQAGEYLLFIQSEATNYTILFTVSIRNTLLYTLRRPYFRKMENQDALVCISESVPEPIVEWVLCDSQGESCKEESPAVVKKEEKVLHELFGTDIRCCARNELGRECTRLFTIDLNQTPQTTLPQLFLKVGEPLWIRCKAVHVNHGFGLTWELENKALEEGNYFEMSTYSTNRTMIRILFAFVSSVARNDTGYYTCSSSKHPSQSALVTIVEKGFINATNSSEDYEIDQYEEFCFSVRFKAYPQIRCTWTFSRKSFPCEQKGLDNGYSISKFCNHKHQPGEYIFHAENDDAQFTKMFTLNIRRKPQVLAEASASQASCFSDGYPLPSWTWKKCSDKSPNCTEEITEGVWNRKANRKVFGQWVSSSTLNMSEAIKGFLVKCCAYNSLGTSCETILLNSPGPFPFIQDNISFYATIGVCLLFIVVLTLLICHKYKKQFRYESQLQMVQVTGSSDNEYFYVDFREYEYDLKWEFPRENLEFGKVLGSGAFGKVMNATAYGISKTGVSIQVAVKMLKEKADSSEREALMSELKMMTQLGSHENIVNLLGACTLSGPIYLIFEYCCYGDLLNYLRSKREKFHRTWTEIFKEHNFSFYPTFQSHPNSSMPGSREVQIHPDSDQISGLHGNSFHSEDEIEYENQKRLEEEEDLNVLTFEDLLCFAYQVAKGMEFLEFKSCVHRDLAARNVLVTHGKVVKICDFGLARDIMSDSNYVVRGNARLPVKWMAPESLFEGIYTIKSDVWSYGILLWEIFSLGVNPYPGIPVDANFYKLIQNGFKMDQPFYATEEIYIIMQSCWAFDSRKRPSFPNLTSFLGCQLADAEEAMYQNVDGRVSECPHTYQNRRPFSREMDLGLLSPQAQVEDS
An outline of the steps:
as §1

The target of another test is T4, PRKX (Homo sapiens, UniProt P51817).
T4 construct: purchased ThermoFisher (SelectScreen, Z'-LYTE)
T4 sequence (P51817 1-358): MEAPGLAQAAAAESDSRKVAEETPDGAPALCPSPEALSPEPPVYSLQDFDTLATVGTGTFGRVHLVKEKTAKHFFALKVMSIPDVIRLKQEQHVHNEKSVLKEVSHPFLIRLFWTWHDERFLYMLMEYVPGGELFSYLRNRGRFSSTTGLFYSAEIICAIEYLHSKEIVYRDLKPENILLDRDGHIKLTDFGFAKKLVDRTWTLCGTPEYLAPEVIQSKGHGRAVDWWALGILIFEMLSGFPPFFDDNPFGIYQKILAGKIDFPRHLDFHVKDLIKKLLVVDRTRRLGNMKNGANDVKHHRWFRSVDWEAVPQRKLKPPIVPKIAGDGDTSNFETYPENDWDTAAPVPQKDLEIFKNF
A digest of the protocol: as §1

Another test concerns the target T5, GRK7 (Homo sapiens, UniProt Q8WTQ7).
T5 construct: purchased ThermoFisher (SelectScreen, Z'-LYTE)
T5 sequence (Q8WTQ7 1-553): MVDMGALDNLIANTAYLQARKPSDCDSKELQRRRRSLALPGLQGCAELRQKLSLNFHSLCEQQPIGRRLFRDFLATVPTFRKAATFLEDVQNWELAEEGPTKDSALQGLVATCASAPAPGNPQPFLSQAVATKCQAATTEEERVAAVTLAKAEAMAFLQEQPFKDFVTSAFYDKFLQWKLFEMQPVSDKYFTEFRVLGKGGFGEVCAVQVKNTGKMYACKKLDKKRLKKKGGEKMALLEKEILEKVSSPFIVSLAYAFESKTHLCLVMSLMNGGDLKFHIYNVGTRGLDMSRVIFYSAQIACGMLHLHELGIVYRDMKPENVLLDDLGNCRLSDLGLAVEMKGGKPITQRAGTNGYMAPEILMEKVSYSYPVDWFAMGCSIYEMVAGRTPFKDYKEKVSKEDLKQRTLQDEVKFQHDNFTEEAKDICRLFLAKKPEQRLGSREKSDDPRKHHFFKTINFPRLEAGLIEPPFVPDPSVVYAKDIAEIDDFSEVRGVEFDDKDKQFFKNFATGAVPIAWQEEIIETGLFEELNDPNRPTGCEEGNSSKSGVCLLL
An outline of the steps: as §1

In another test the target is T6, STK3 (MST2) (Homo sapiens, UniProt Q13188).
T6 construct: purchased ThermoFisher (SelectScreen, Z'-LYTE)
T6 sequence (Q13188 1-491): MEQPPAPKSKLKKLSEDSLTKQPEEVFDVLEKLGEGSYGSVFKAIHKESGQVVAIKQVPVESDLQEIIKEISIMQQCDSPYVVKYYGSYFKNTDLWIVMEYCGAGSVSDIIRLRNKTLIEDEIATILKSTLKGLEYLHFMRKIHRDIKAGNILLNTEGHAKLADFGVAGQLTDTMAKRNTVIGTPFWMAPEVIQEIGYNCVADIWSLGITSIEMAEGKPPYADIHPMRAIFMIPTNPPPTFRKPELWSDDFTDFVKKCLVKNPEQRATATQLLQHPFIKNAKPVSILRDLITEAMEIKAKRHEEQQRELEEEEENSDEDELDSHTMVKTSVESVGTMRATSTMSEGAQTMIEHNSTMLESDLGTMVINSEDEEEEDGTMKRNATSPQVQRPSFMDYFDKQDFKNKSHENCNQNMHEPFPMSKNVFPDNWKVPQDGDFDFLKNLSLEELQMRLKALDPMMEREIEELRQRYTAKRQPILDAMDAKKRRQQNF
An outline of the steps: as §1

For a further test, the target named is T7, MAPK11 (p38 beta) (Homo sapiens, UniProt Q15759).
T7 construct: purchased ThermoFisher (SelectScreen, Z'-LYTE)
T7 sequence (Q15759 whole entry): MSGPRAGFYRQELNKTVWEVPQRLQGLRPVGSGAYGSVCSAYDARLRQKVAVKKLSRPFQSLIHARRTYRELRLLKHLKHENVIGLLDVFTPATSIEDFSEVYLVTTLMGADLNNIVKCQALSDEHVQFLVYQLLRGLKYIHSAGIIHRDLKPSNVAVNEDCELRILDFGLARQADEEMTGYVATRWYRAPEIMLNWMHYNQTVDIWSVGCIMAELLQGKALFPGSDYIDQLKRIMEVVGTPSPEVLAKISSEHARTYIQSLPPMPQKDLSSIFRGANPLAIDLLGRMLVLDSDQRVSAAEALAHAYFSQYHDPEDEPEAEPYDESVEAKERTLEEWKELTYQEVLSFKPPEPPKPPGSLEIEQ
An outline of the steps:
as §1

A further test addresses T8, MAPK10 (JNK3) (Homo sapiens, UniProt P53779).
T8 construct: purchased ThermoFisher (SelectScreen, Z'-LYTE)
The settings on record: 10 µM compound; ATP 100. A digest of the protocol:
as §1

The next test concerns the target T9, FES (FPS) (Homo sapiens, UniProt P07332).
T9 construct: purchased ThermoFisher (SelectScreen, Z'-LYTE)
A digest of the protocol:
as §1

T9 sequence (P07332 whole entry): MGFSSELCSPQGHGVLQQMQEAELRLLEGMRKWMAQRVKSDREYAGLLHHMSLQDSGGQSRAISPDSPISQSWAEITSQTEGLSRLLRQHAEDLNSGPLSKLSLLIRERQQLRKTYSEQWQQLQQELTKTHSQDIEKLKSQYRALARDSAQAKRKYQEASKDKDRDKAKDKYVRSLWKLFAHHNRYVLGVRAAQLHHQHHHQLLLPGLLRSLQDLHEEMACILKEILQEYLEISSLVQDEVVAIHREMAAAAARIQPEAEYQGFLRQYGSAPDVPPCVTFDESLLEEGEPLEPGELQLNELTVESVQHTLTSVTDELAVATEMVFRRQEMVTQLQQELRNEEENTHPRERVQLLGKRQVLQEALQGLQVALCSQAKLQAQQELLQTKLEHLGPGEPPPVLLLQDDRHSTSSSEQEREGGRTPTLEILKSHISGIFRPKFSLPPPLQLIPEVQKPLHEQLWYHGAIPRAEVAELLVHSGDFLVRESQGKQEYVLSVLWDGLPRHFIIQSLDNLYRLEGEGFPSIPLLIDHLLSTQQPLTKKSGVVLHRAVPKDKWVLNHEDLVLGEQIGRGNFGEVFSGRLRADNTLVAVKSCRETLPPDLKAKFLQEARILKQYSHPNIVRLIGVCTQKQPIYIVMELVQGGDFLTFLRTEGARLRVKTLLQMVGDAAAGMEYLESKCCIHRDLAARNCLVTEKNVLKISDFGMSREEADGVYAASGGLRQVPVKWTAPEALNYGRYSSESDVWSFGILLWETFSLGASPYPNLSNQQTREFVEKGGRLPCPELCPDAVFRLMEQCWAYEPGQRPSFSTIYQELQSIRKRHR
T1 sequence (P31751 whole entry): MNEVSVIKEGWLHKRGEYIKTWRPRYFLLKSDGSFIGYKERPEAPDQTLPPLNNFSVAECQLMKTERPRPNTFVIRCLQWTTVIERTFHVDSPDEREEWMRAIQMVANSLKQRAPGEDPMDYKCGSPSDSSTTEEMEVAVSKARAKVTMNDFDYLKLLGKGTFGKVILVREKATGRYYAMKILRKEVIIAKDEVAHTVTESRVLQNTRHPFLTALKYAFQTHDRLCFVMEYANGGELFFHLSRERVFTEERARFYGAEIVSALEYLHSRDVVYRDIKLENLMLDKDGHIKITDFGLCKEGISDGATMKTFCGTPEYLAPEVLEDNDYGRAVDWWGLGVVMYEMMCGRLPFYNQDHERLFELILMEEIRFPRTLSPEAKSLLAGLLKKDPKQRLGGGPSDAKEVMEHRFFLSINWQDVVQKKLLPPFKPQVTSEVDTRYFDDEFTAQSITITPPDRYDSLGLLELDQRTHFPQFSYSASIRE
T2 sequence (Q16539 whole entry): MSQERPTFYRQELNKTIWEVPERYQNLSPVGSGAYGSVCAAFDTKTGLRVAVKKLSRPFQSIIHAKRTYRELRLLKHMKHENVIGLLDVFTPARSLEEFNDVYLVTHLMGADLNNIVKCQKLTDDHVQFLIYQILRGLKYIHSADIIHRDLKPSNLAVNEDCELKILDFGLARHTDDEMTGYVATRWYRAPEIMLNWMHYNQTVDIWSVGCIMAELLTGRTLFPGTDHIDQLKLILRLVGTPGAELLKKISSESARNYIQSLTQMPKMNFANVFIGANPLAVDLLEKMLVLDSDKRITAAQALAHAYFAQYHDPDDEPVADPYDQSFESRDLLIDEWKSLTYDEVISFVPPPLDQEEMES
T8 sequence (P53779 whole entry): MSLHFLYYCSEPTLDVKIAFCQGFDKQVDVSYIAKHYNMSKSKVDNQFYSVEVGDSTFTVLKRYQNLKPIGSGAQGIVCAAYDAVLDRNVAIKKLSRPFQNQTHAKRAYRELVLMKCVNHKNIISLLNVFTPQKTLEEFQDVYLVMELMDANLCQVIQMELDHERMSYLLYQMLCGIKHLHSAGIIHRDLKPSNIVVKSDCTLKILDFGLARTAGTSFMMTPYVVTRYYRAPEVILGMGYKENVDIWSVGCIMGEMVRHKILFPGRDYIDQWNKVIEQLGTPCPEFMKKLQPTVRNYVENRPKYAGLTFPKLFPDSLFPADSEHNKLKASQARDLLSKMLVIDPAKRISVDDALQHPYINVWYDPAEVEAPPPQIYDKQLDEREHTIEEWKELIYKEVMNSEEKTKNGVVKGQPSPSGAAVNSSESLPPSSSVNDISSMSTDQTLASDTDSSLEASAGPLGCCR

Regarding “XMD8-92 [Compound 2, reference compound]”, the “AKT2 (PKB beta) % Inhibition” value at AKT2 (PKB beta) (10 µM compound, ATP Km app) turned out to be 98%. Besides, at MAPK14 (p38 alpha), the “MAPK14 (p38 alpha) % Inhibition” value is 99%. For the same compound, the “FLT3 % Inhibition” value on FLT3 (10 µM compound, ATP Km app) came out at 90%. For the same compound, the “PRKX % Inhibition” value at PRKX (10 µM compound, ATP Km app) was 25%. Moreover, on GRK7 (10 µM compound, ATP Km app), the “GRK7 % Inhibition” value is recorded as 39%. Moreover, the “STK3 (MST2) % Inhibition” value at STK3 (MST2) (10 µM compound, ATP Km app) was -12%. Further, at MAPK11 (p38 beta) (10 µM compound, ATP Km app), the “MAPK11 (p38 beta) % Inhibition” value came to 10%. Further, the “MAPK10 (JNK3) % Inhibition” value at MAPK10 (JNK3) worked out at 9%. In addition, at FES (FPS) (10 µM compound, ATP Km app), the “FES (FPS) % Inhibition” value is recorded as 78%.

Turning to `Cc1cc(Nc2nc(N)nn2C(=O)NC(C)C)ccc1Cl` [Compound 5], the inhibition at 10 µM at AKT2 (PKB beta) is -0.29%; on MAPK14 (p38 alpha) it was 26%; at FLT3, 55%; on PRKX it was 8.43%; against GRK7, 10%; at STK3 (MST2) it was 53%. Further, the inhibition at 10 µM on MAPK11 (p38 beta) is 4.21%; at MAPK10 (JNK3), 2.76%; at FES (FPS), 9%.

In the case of `Cc1ncc(-c2nc(Nc3ccc(C(=O)NCCN4CCCCC4)cc3)ncc2F)n1C(C)C` [Compound 3], the inhibition at 10 µM against AKT2 (PKB beta) is 7%; on MAPK14 (p38 alpha) it was 22%; on FLT3, 101%; at PRKX, 84%; on GRK7, 40%; against STK3 (MST2), 79%. For the same compound, the inhibition at 10 µM on MAPK11 (p38 beta) came to 22%; on MAPK10 (JNK3), 77%; against FES (FPS) it was 106%.

Source of the values: paper PMC4854315, “Discovery of a novel allosteric inhibitor-binding site in ERK5: comparison with the canonical kinase hinge ATP-binding site” (Acta Crystallographica. Section D, Structural Biology, 2016).
